Data set [1] relates to 3T6 cells. Description: 3T6 cells: inhibition of hydroxylation of prolyl residues within collagen (test (c)). To be noted: hydroxylation of prolyl residues in collagen. It counts as cell-based. As to the method: (c) An in vitro assay involving incubating cultures of 3T6 cells with a test compound and [^14C]- and [^3H]-labelled L-proline, and measuring the inhibition of hydroxylation at the 4-trans-position of prolyl residues within the available collagen using the procedure described by T. J. Franklin and M. Hitchen (Biochem. J., 261:127-130 (1989)).

The target in data set [2] is T1, prolyl 4-hydroxylase (Gallus gallus, UniProt P16924).
T1 construct: a highly purified preparation of prolyl 4-hydroxylase; from tissue; chick embryos according to the cited method (own knowledge)
T1 sequence (P16924 1-516): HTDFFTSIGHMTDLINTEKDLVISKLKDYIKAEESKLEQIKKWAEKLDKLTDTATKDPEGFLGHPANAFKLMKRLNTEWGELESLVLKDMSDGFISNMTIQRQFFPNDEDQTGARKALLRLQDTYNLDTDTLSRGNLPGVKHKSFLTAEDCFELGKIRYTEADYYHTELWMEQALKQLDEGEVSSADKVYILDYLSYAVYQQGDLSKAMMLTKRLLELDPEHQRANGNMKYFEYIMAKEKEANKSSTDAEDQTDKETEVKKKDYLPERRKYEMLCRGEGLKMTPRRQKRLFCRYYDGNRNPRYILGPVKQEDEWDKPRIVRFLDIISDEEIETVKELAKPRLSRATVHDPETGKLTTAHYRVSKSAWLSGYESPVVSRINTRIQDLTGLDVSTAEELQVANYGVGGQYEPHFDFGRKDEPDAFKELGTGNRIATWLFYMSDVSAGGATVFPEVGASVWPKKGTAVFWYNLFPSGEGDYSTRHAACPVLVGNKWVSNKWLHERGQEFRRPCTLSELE
T1 sequence (P09102 23-515 partner): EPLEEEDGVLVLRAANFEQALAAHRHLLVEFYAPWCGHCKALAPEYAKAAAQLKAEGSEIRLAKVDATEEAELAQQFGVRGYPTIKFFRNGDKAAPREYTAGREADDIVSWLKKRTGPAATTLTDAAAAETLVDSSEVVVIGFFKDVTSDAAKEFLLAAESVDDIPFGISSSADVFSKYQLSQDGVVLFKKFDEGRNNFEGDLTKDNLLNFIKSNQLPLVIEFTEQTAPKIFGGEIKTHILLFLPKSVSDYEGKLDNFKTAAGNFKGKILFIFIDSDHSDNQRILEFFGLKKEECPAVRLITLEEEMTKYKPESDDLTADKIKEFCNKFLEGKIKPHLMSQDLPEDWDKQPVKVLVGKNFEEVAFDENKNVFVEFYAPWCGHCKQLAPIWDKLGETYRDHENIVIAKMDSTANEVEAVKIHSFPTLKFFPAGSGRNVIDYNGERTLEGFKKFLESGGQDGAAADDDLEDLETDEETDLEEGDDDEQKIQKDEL
The experiment in a line: in vitro enzyme assay, cell free, highly purified prolyl 4-hydroxylase (test (a)). It counts as biochemical. The procedure: (a) An in vitro enzyme assay system, which assesses the inhibitory properties of a test compound in a cell free system using a highly purified preparation of prolyl 4-hydroxylase. The enzyme preparation was obtained using the method described by N. Kedersha and R. Berg (Collagen Related Research, 1:345 (1981)) and the activity of a test compound was measured using the method described by C. J. Cunliffe, T. J. Franklin and R. Gaskell (Biochem. J., 240:617 (1986)).

Data set [3] deals with embryonic chick tendon cells. The experiment in a line: embryonic chick tendon cells: inhibition of hydroxylation of prolyl residues within collagen (test (b)). It counts as cell-based. Conditions: Gallus gallus, hydroxylation of prolyl residues in collagen. The procedure:
(b) An in vitro assay system involving incubating embryonic chick tendon cells in the presence of a test compound and measuring the inhibition of hydroxylation at the 4-position of prolyl residues within the available collagen. The embryonic chick tendon cells were prepared from the leg tendons of 17-day chick embryos using the method of P. Dehm and D. Prockop (Biochem. Biophys Acta, 240:358 (1971)). The cells were incubated in the presence of [^14C]- and [^3H]-labelled L-proline and the extent of hydroxylation at the 4-trans-position of the prolyl residues within the collagen was determined using the procedure described by T. J. Franklin and M. Hitchen (Biochem. J, 261:127-130 (1989)).

The subject of data set [4] is collagen within the uteri of immature female rats. The experiment in a line: in vivo inhibition of prolyl hydroxylation within collagen in uteri of immature female rats (test (d)). To be noted: Rattus norvegicus, po; 50 mg/kg orally, compound dosed 2 hours before proline administration. The procedure:
(d) An in vivo assay involving the measurement of the inhibition by a test compound of hydroxylation at the 4-trans-position of prolyl residues within collagen within the uteri of immature (20-21 day) female rats. The test compounds were administered either orally or intraperitoneally to the rats in which uterine collagen synthesis had been stimulated by the subcutaneous administration of a solution of oestradiol benzoate (0.5 μg on each of two successive days) in arachis […] oil. The rats were dosed with 5 μCuries of [^14C]-L-proline and the uteri were taken 2 hours after the dosing of the radiolabelled proline and sonicated. Collagen was extracted by treatment of the tissue with water at 120° C. for 1 hour in an autoclave and hydrolysed by treatment with 6N hydrochloric acid for 18 hours at reflux temperature. The proline and 4-hydroxyproline residues were separated by column chromatography on a reversed-phase Spherisorb S5ODS1 column using as eluent a 89.9:10:0.1 v/v mixture of water:isopropanol:trifluoroacetic acid to which 0.3% w/v of sodium dodecylsulphate had been added. The ratio of radioactivity found in each of the proline and 4-hydroxyproline fractions was determined by liquid scintillation counting to allow the measurement of the inhibition of hydroxylation by a test compound.

In data set [5] the test system is dermal punch wound. Description: dermal wound healing, rat punch model. It counts as in vivo. To be noted: compared to control. As to the method:
FIG. 5 illustrates wound area after treatment of Compound 3 in the dermal punch model.
(§1) The effectiveness of the compounds in dermal wound healing was tested using two wound healing models—rat punch model and rat incisional model—as described above.

The subject of data set [6] is dermal incisional wound. Description: dermal wound healing, rat incisional model. To be noted: compared to control. It counts as in vivo. The procedure:
FIG. 6 illustrates the tensile strength on dermal incisional wound on day 7 after oral treatment of Compound 3 and Compound 12.
FIG. 7 illustrates the tensile strength of incisional wound after local injections of Compound 12.
as §1

In data set [7] the test system is granulation tissue in wound chamber. The experiment in a line: in vivo wound chamber model. Also on record: species or system rat. Conditions: Rattus norvegicus, injected into chamber daily, day 7-14 treatment, read-out: Mean Collagen content (% of Control) On Day 14; for response vs control in vivo at 0.01 mg: 10 μg dosage; for response vs control in vivo at 0.05 mg: 50 μg dosage. The procedure: (e) An in vivo wound chamber model involving the measurement of histological changes in granulation tissue. The test compounds were tested in rats according to the procedures generally described in Schilling et al., Surgery 46(4):702-710 (1959), Hunt et al., Am. J. Surgery 114:302-307 (1967), and Grotendorst et al., J. Clin Inves. 76:2323-2329 (1985). More specifically, stainless wire mesh cylinders were implanted subcutaneously under the back skin of rats (two chambers per animal). The compounds of the present invention were then dissolved in DMSO and injected into each chamber on a daily basis at various concentrations from either day 0-14 or day 7-14. On day 14, the chambers were collected and the granulation tissues contained within the chambers were collected for biochemical (collagen content) or histological evaluation.
Following the in vivo wound chamber model described above, fourteen of the claimed compounds tested to determine the effectiveness of the claimed compounds in inhibiting collagen deposition in the wound chamber.

pIC50: −log10 of the molar value.

The molecule `CCCCN(CC)C(=O)c1cnc2c3c(ccc2c1)C(=O)C(C(=O)O)C=N3` (stereo not drawn) [Example 2, 8-(N-butyl-N-ethylcarbamoyl)-3-carboxy-4-oxo-3,4-dihydro-1,10-phenanthroline] returned a melting point of 236 to 237 °C. In data set [1], this molecule had a pIC50 of 5.27. In addition, the pIC50 in data set [2] was 6.40. Further, in data set [3], the negative-log IC50 (pIC50) is 5.92. The same molecule returned an inhibition at 50 mg/kg in data set [4] of 46%.
Consider `CCOC(=O)C1C=Nc2c(c(OC)cc3cccnc23)C1=O` (stereo not drawn) [Compound 14, 3-ethoxycarbonyl-4-oxo-5-methoxy-3,4-dihydro-1,10-phenanthroline], for which the healing time result in data set [5] is given as “increased healing time”. Also, the “tensile strength of wound” value in data set [6] is reported as “reduced tensil strength”. Further, in data set [7], the response vs control in vivo at 0.01 mg was found to be 72.2% and the response vs control in vivo at 0.05 mg is 70.3%.
Molecule `O=C(O)C1C=Nc2c(ccc3cc(C(=O)N4CCc5ccccc5C4)cnc23)C1=O` (stereo not drawn) [Example XIV, 3-carboxy-4-oxo-8-(1,2,3,4-tetrahydroisoquinolin-2-ylcarbonyl)-3,4-dihydro-1,10-phenanthroline] displayed a melting point of 171 to 182 °C.
`CCOC(=O)c1cnc2c3c(ccc2c1Cl)C(=O)C(C(C)=O)C=N3` (stereo not drawn) [Example X, 3-acetyl-7-chloro-8-ethoxycarbonyl-4-oxo-3,4-dihydro-1,10-phenanthroline] had a melting point of 288 to 290 °C.
In the case of `CCOC(=O)C1C=Nc2c(ccc3c(N(C)C)c(C(=O)N(C)Cc4ccccc4)cnc23)C1=O` (stereo not drawn) [Example XV, 8-(N-benzyl-N-methylcarbamoyl)-7-dimethylamino-3-ethoxy-carbonyl-4-oxo-3,4-dihydro-1,10-phenanthroline], the melting point was in the range of 169 to 170 °C.
In turn, `COCCOCCOC(=O)C1C=Nc2c(ccc3cccnc23)C1=O` (stereo not drawn) [Compound 8, 3-[2-(2-methoxyethoxy)ethoxycarbonyl]-4-oxo-3,4-dihydro-1,10-phenanthroline] yielded a melting point of 164 to 165 °C. Further, in data set [7], the response vs control in vivo at 0.01 mg worked out at 114% and the response vs control in vivo at 0.05 mg was found to be 92.5%.

These data come from patent publication US20010001101A1, “Phenanthroline derivatives” (Zeneca Limited, priority 1997, published 2001).
